# Measurements published in a melting point compilation (Tetko et al.; mined from patent text by program, amines drawn as free bases though some values may be those of a salt).
row,SMILES,melting point [°C]
1,COc1ccc(C(=O)NCCCCCCCCCCCNC(=O)c2ccc(OC)cc2)cc1,150 to 151
2,CN1C(=O)Cc2cscc2S1(=O)=O,148 to 149
3,CC(C)(C)NCC(O)c1ccc(O)c(NC=O)c1 (configuration not stated),195 to 196
4,Cc1ccc(COc2ncc(F)c(NS(=O)(=O)c3ccc(C)cc3)n2)cc1,120 to 122
5,CN(C)C(c1cccc(F)c1)C1CCC(=O)CC1 (configuration not stated),72 to 75
6,S=C=NC1(Br)C=Cc2nccnc2C1 (configuration not stated),157 to 158
7,CN1c2ccccc2CN(C(=O)C(F)(F)F)c2ccccc21,104 to 106
8,O=C(O)C1CC(Cl)=C(c2ccccc2)CC1C(=O)O (configuration not stated),82 to 90
9,CCOc1nn(Cc2ccc(Cl)cc2Cl)cc1CCCO,58 to 59
10,O=C(Nc1ccccc1S(=O)(=O)c1ccccc1)N[C@@H](Cc1ccc(NC(=O)c2c(Br)cncc2Br)cc1)C(=O)O,231
11,Oc1ccc(Cl)nc1Cl,136 to 138
12,CCOC(=O)c1cc(OC)c2c(c1)C(=O)c1c(F)ccc(OC)c1C2=O,201 to 203
13,O=S(=O)(Cl)c1ccc2c(c1)oc1ccccc12,142 to 144
14,Cc1cc(C)nc(SCc2nccc(SCCCSc3ccc4ncc([N+](=O)[O-])n4n3)c2C)n1,145 to 147
15,Cc1cc2c(c3ccc(=O)[nH]c13)OC(CSCCN)C2 (configuration not stated),182 to 184
16,COCCc1nc2c(N)nc3ccccc3c2n1CCOCCN(C)C(=O)C1CCCCC1,52 to 57
17,NS(=O)(=O)c1cccc(NC(=O)c2cnn3c(C(F)(F)F)cc(-c4ccc(C(F)(F)F)c(OCC(F)(F)F)c4)nc23)c1,233
18,CCOC(=O)c1ccc(NC(=O)C=C(c2ccc(Cl)cc2)c2ccc(Cl)cc2)cc1,207 to 209
19,Cc1c(O)ccc2c1CCCC2=O,195 to 197
20,CC[C@@H]1O[C@](C#CC2CC2)(C(F)(F)F)c2c(ccc(F)c2F)NC1=O (relative stereo),180 to 181
21,O=C1CSC(=S)N1N=c1sc2ccc([N+](=O)[O-])cc2s1,315
22,CCOC(=O)C(O)=Cc1ccc(S(=O)c2ccc(F)cc2)cn1 (configuration not stated),148 to 150
23,O=C(Oc1cc2c(c3ccccc13)Nc1ccccc1S2)c1ccccc1,171
24,CCCCCCCCn1c2cc(I)ccc2c2ccc(I)cc21,82 to 84

row,SMILES,melting point [°C]
1,C1=CCC(C2CCCCCCC2)N=NC(C2CCCCCCC2)CC=CCC1 (configuration not stated),62 to 63
2,CCNC(=O)n1nc(Oc2c(Cl)cc(C(F)(F)F)cc2Cl)cc1CC(=O)OCC,100 to 102
3,CC(C)n1c(C=O)c(-c2ccc(F)cc2)c(-c2ccccc2)c1C(=O)Nc1ccccc1,222 to 224
4,N#CCc1ccc(F)cc1C(=O)O,140
5,CC(C)C(=O)c1ccc(-c2ccc3c(c2)CC[C@H]2N(C)C(=O)CC[C@]32C)cc1,101 to 103
6,Cc1[nH]cnc1CSCCNc1ncc(Cc2ccccc2)cc1C#N,105 to 106
7,CCCCC(=O)Nc1ccc(C(=O)Nc2ccc3cc(CN4CCCC4)cnc3c2C)cc1,206 to 207
8,CC(=O)OCC(=O)C1(OC(C)=O)C(C)CC2C3CC(C)C4=CC(=O)C=CC4(C)C3C(O)CC21C (configuration not stated),124 to 126
9,Nc1nc(-c2cc(Cl)ccc2Cl)nc(N2CC(O)C2)n1,256 to 257
10,COc1ccc(C)c([N+](=O)[O-])c1C,53 to 55
11,Nc1ccn2nc(-c3ccccc3)nc2c1,212 to 213
12,OC(Cn1cncn1)(c1ccc(F)cc1F)C(F)(F)F (configuration not stated),110 to 111
13,Cc1nc(N)nc(N)c1C=CC(C)(C)c1ccc(Cl)cc1,195 to 200
14,Cc1cccc(OS(=O)(=O)c2ccc(N3CCCNC3=O)cc2)c1,145 to 147
15,CSc1ccc(C(=O)c2ccc(SC)cc2O)cc1,113 to 114
16,COCCOC(=O)NNC(=O)OCCOC,71.3 to 76.5
17,Cn1c(=O)c(-c2c(Cl)cccc2Cl)cc2cnc(NCCc3ccccn3)nc21,173 to 174
18,Cc1ccccc1-n1ccc2c(NCCO)nc3c(C)cccc3c21,187 to 188
19,O=CNCc1c(Cl)ccc2cc(Cl)cnc12,110
20,Cn1nc(C(F)(F)F)c(C(=O)O)c1F,165 to 166
21,OC(Cn1cncn1)(c1ccc(Cl)cc1)C1(n2cnc(Cl)n2)CC1 (configuration not stated),156
22,CCN(CC)C(=O)CCC1CCN(Cc2cnc3cc(NC(=O)c4ccc(-c5ccc(F)cc5)cc4)c(C)cc3c2)CC1,150 to 154
23,C=CCc1ccccc1OC(CC)C(=O)OC1CC(O)C=C2C=CC(C)C(CCC3CC(O)CC(=O)O3)C21 (mixture of isomers),143 to 145
24,Cc1cc(C)n(Cc2ccc(Cl)cc2Cl)c1/C=C/C(=O)O,193 to 194

row,SMILES,melting point [°C]
1,CCCCC(=CC(N)C(=O)O)CP(=O)(O)O (configuration not stated),186 to 187
2,N#Cc1cc(C(=O)c2cccs2)ccc1O,216
3,CCCCCc1ccc2c(c1)Cc1cc(CCCCC)ccc1-2,98.9 to 99.6
4,CCOC(=O)CN1CCc2c(sc(N)c2C(=O)c2ccccc2)C1,115 to 117
5,CN(C)CCOc1c(-c2ccc(S(C)(=O)=O)cc2)cnn(-c2cccc(Cl)c2)c1=O,110 to 113
6,COCC(=O)c1cnc2c(OC)cccc2c1Cl,96 to 98
7,CCc1cc(Nc2nc(Nc3cc(CC)n[nH]3)c3ccccc3n2)[nH]n1,248 to 252
8,Cc1cc2cc(CN3CCCC3)cnc2cc1NC(=O)c1ccc(-c2ccc(Cl)cc2)nc1,232 to 237
9,CC(=O)c1ccc(C(C)(c2ccc(C(C)=O)cc2)c2ccc(C(C)=O)cc2)cc1,232
10,C=CCN1CN(C(=O)c2c(F)cccc2F)C(=O)N(c2ccc(Cl)cc2)C1,87 to 88
11,COCCCS(=O)(=O)NC(=O)CC(C)c1ccc(OCCOC)cc1Oc1ncc(C(F)(F)F)cc1Cl (configuration not stated),107 to 109
12,CCS(=O)(=O)ON=C(Cl)c1ccc(F)cc1,39 to 41.5
13,CCCN(CCC)c1nsc(N)c1C#N,136 to 138
14,CC(C)C[C@@H](C#N)NC(=O)[C@@H]1CCCC[C@@H]1NC(=O)c1ccc(-n2cncn2)cc1,156 to 159
15,CC(=O)CN1C(=O)C(NC(=O)Nc2cccc(C)c2)N=C(C)c2cccc(C)c21 (configuration not stated),126 to 128
16,NCC(=O)N1c2ccccc2N(Cc2ccccc2)C(=O)[C@H]2CCC[C@H]21 (relative stereo),163 to 165
17,CC(C)(C)CNc1ccnc2sc(C(N)=O)c(N)c12,238 to 240
18,CN(C)C1CC=C(c2c[nH]c3ccc([N+](=O)[O-])cc23)CC1 (configuration not stated),234 to 236
19,CCOC(=O)c1cnoc1-c1ccc(F)cc1,34 to 38
20,Cc1ccc(C(=O)Nc2ccc(C#N)cc2)cc1Nc1ncc(-c2cccnc2)o1,203
21,O=C1C(=CO)c2ccccc2N1c1ccccc1,192 to 195
22,CC1C=C(c2cccc(C(F)(F)F)c2)n2ncc(C#N)c2N1C(=O)CCl (configuration not stated),160 to 163
23,"CCCCCCCCCCCCOC(C)c1ccc(C(=O)O)cc1 (single isomer, unassigned; (+))",49.5 to 50
24,COC(=O)[C@@H](CCSC)NC(=O)C[C@H]1O[C@H](c2cccc(OC)c2OC)c2cc(Cl)ccc2N(CC(C)(C)CO)C1=O,142 to 143
